Numbers after ± are expanded uncertainties.
How the values were obtained:
[1] = Liquid, Ebulliometric method (Recirculating still)
[2] = refractive index (Na D-line) (dimensionless); settings: 293.15 K; 101.33 kPa; Liquid; Standard Abbe refractometry

Compound | vapor or sublimation pressure ([1]; 323 K) | vapor or sublimation pressure ([1]; 343.4 K) | vapor or sublimation pressure ([1]; 353.2 K) | vapor or sublimation pressure ([1]; 363.1 K) | vapor or sublimation pressure ([1]; 369.2 K) | refractive index [2]
CCCCCCCCCCCC [dodecane] | 0.12 kPa | 0.46 kPa | 0.73 ± 1.2 kPa | 1.31 ± 1.2 kPa | 1.76 ± 1.2 kPa | 1.4192 ± 0.0007
CCCO [propan-1-ol] | 12.11 ± 1.2 kPa | 32.82 ± 1.2 kPa | 50.82 ± 1.3 kPa | 76.67 ± 1.4 kPa | 96.66 ± 1.4 kPa | 1.382 ± 0.0007

Reference: the NIST ThermoML archive (doi:10.1021/je201032t)
